# Activity calls are given as the source filed them. The rule behind the calls is not given here.
# How the values were obtained:
# LS174T [1] = experiment: Induction of cell cycle arrest in human LS174T cells assessed as accumulation of cells at sub-G1 phase at 20 uM measured at 12 hrs by RNase A/propidium iodide staining based flow cytometric analysis (reference value: 0.7 %); type: functional
# RKO = experiment: Antiproliferative activity against human RKO cells harboring wild type beta-catenin assessed as reduction in cell viability measured after 72 hrs by SRB assay; type: functional, cell-based
# SW480 = experiment: Antiproliferative activity against human SW480 cells harboring wild type beta-catenin assessed as reduction in cell viability measured after 72 hrs by SRB assay; type: functional, cell-based; details: SW480, 72 h
# HCT-15 = experiment: Antiproliferative activity against human HCT-15 cells harboring wild type beta-catenin assessed as reduction in cell viability measured after 72 hrs by SRB assay; type: functional, cell-based; details: HCT-15, 72 h
# HCT-116 = experiment: Antiproliferative activity against human HCT-116 cells harboring beta-catenin mutant assessed as reduction in cell viability measured after 72 hrs by SRB assay; type: functional, cell-based; details: HCT-116, 72 h
# CCD-841CoN = experiment: Antiproliferative activity against human CCD-841CoN cells assessed as reduction in cell viability measured after 72 hrs by SRB assay; type: functional, cell-based
# LS174T [2] = experiment: Induction of cell cycle arrest in human LS174T cells assessed as accumulation of cells at G2/M phase at 20 uM measured at 24 hrs by RNase A/propidium iodide staining based flow cytometric analysis (reference value: 12.9 %); type: functional
# LS174T [3] = experiment: Induction of apoptosis in human LS174T cells assessed as upregulation of cleaved caspase-3 expression measured after 48 hrs by Western blot analysis; type: functional, cell-based; details: dose 20-40 µM, DDE = dose-dependent effect
# LS174T [4] = experiment: Induction of apoptosis in human LS174T cells assessed as downregulation of survivin expression measured after 48 hrs by Western blot analysis; type: functional, cell-based; details: dose 20-40 µM, DDE = dose-dependent effect
# Mus musculus [5] = experiment: Downregulation of survivin expression in tumor of BALB/c mouse xenografted with human LS174T cells at 10 to 30 mg/kg, ip administered 3 times per week for 21 days by Western blot analysis; type: functional, organism-based; details: dose 10-30 mg/kg, time 21.0 day
# Mus musculus [6] = experiment: Downregulation of cyclin-D1 expression in tumor of BALB/c mouse xenografted with human LS174T cells at 10 to 30 mg/kg, ip administered 3 times per week for 21 days by Western blot analysis; type: functional, organism-based; details: dose 10-30 mg/kg, time 21.0 day
# Mus musculus [7] = experiment: Downregulation of MMP-7 expression in tumor of BALB/c mouse xenografted with human LS174T cells at 10 to 30 mg/kg, ip administered 3 times per week for 21 days by Western blot analysis; type: functional, organism-based; details: dose 10-30 mg/kg, time 21.0 day
# Mus musculus [8] = experiment: Downregulation of snail protein expression in tumor of BALB/c mouse xenografted with human LS174T cells at 10 to 30 mg/kg, ip administered 3 times per week for 21 days by Western blot analysis; type: functional, organism-based; details: dose 10-30 mg/kg, time 21.0 day
smiles,measurement,setting,value
O=c1c2ccccc2nc2n1CCc1c-2[nH]c2ccccc12 [RUTAECARPINE],Activity,LS174T [1],0.5%
same,IC50,RKO,> 50 µM
same,IC50,SW480,> 50 µM
same,IC50,HCT-15,> 50 µM
same,IC50,HCT-116,31.1 µM
same,IC50,CCD-841CoN,> 50 µM
same,Activity,LS174T [2],5.6%
same,Activity,LS174T [3],Dde
same,Activity,LS174T [4],Dde
same,Activity,Mus musculus [5],Active
same,Activity,Mus musculus [6],Active
same,Activity,Mus musculus [7],Active
same,Activity,Mus musculus [8],Active
